In brackets after ≈: the same amount, converted by molar mass. Activity calls are given as the source filed them. No cut-off for these calls is given here.
Columns and labels:
Format in all cases: functional
Staphylococcus aureus [1] = assay: Antibacterial activity against linezolid-resistant Staphylococcus aureus NRS 119
Enterococcus faecalis [2] = assay: Antibacterial activity against Enterococcus faecalis ATCC 14506
Enterococcus faecalis [3] = assay: Antibacterial activity against vancomycin-resistant Enterococcus faecalis ATCC 700802
[4] = tested on: Staphylococcus epidermidis; assay: Antibacterial activity against Staphylococcus epidermidis ATCC 155
Staphylococcus aureus [5] = assay: Antibacterial activity against Staphylococcus aureus ATCC 29213
Bacillus pumilus = assay: Antibacterial activity against Bacillus pumilus ATCC 14348
Staphylococcus aureus [6] = assay: Antibacterial activity against Staphylococcus aureus ATCC 14154
Enterococcus faecalis [7] = assay: Antibacterial activity against Enterococcus faecalis ATCC 35550
Staphylococcus aureus [8] = assay: Antibacterial activity against Staphylococcus aureus ATCC 25923
Staphylococcus aureus [9] = assay: Antibacterial activity against methicillin-resistant Staphylococcus aureus ATCC 700699
Streptococcus pneumoniae = assay: Antibacterial activity against penicillin-resistant Streptococcus pneumoniae ATCC 700904
Streptococcus pyogenes = assay: Antibacterial activity against Streptococcus pyogenes ATCC 14289
Staphylococcus aureus [10] = assay: Antibacterial activity against Staphylococcus aureus ATCC 9144

SMILES | MIC (Staphylococcus aureus [1]) [µg/mL] | MIC (Enterococcus faecalis [2]) [µg/mL] | MIC (Enterococcus faecalis [3]) [µg/mL] | MIC [4] [µg/mL] | MIC (Staphylococcus aureus [5]) [µg/mL] | MIC (Bacillus pumilus) [µg/mL] | MIC (Staphylococcus aureus [6]) [µg/mL] | MIC (Enterococcus faecalis [7]) [µg/mL] | MIC (Staphylococcus aureus [8]) [µg/mL] | MIC (Staphylococcus aureus [9]) [µg/mL] | MIC (Streptococcus pneumoniae) | MIC (Streptococcus pyogenes) [µg/mL] | MIC (Staphylococcus aureus [10]) [µg/mL]
CC(=O)NC[C@H]1CN(c2ccc(N3CCN(C(=O)/C=C/C(=O)c4cccc5ccccc45)CC3)c(F)c2)C(=O)O1 | > 16 | 1 (≈ 1.84 µM) | 8 (≈ 14.7 µM) | 2 (≈ 3.67 µM) | 2 (≈ 3.67 µM) | 1 (≈ 1.84 µM) | 4 (≈ 7.35 µM) | 0.5 (≈ 0.918 µM) | 2 (≈ 3.67 µM) | 8 (≈ 14.7 µM) | 2 µg/mL (≈ 3.67 µM) | 0.5 (≈ 0.918 µM) | 4 (≈ 7.35 µM)
CC(=O)NC[C@H]1CN(c2ccc(N3CCN(C(=O)/C=C/C(=O)c4ccccc4)CC3)c(F)c2)C(=O)O1 | 4 (≈ 8.09 µM) | 2 (≈ 4.04 µM) | 2 (≈ 4.04 µM) | 0.12 (≈ 0.243 µM) | 0.25 (≈ 0.506 µM) | 1 (≈ 2.02 µM) | ≤ 0.12 | 0.5 (≈ 1.01 µM) | ≤ 0.12 | ≤ 0.12 | ≤ 0.12 µg/mL | 0.25 (≈ 0.506 µM) | ≤ 0.12
COc1ccc(C(=O)/C=C/C(=O)N2CCN(c3ccc(N4C[C@H](CNC(C)=O)OC4=O)cc3F)CC2)cc1 | > 16 | 1 (≈ 1.91 µM) | 2 (≈ 3.81 µM) | 0.25 (≈ 0.477 µM) | 0.25 (≈ 0.477 µM) | 0.5 (≈ 0.953 µM) | ≤ 0.12 | 0.5 (≈ 0.953 µM) | 0.5 (≈ 0.953 µM) | 1 (≈ 1.91 µM) | 2 µg/mL (≈ 3.81 µM) | ≤ 0.12 | 0.5 (≈ 0.953 µM)
COc1ccc(C(=O)/C=C/C(=O)N2CCN(c3ccc(N4C[C@H](C/N=C(/C)S)OC4=O)cc3F)CC2)cc1 | > 16 | 1 (≈ 1.85 µM) | – | 0.12 (≈ 0.222 µM) | ≤ 0.12 | 0.5 (≈ 0.925 µM) | 0.25 (≈ 0.462 µM) | 0.25 (≈ 0.462 µM) | 0.25 (≈ 0.462 µM) | 0.5 (≈ 0.925 µM) | 1 µg/mL (≈ 1.85 µM) | 0.25 (≈ 0.462 µM) | ≤ 0.12
CC(=O)NC[C@H]1CN(c2ccc(N3CCN(C(=O)/C=C/C(=O)c4ccc(NC(C)=O)cc4)CC3)c(F)c2)C(=O)O1 | > 16 | 1 (≈ 1.81 µM) | – | ≤ 0.12 | ≤ 0.12 | 0.5 (≈ 0.906 µM) | ≤ 0.12 | 0.25 (≈ 0.453 µM) | 0.5 (≈ 0.906 µM) | 1 (≈ 1.81 µM) | inactive | ≤ 0.12 | ≤ 0.12
CC(=O)NC[C@H]1CN(c2ccc(N3CCN(C(=O)/C=C/C(=O)c4ccc(Br)cc4)CC3)c(F)c2)C(=O)O1 | > 16 | 2 (≈ 3.49 µM) | > 16 | 0.25 (≈ 0.436 µM) | 4 (≈ 6.98 µM) | 0.12 (≈ 0.209 µM) | 2 (≈ 3.49 µM) | 2 (≈ 3.49 µM) | ≤ 0.12 | 4 (≈ 6.98 µM) | 2 µg/mL (≈ 3.49 µM) | – | 4 (≈ 6.98 µM)
CC(=O)/C=C/C(=O)N1CCN(c2ccc(N3C[C@H](CNC(C)=O)OC3=O)cc2F)CC1 | > 16 | 4 (≈ 9.25 µM) | 2 (≈ 4.62 µM) | 0.25 (≈ 0.578 µM) | – | 0.5 (≈ 1.16 µM) | 1 (≈ 2.31 µM) | 1 (≈ 2.31 µM) | 0.25 (≈ 0.578 µM) | 1 (≈ 2.31 µM) | 0.5 µg/mL (≈ 1.16 µM) | – | 1 (≈ 2.31 µM)
CC(=O)NC[C@H]1CN(c2ccc(N3CCOCC3)c(F)c2)C(=O)O1 [LINEZOLID] | > 16 | – | – | 1 (≈ 2.96 µM) | – | 2 (≈ 5.93 µM) | – | – | 1 (≈ 2.96 µM) | 1 (≈ 2.96 µM) | 0.25 µg/mL (≈ 0.741 µM) | 0.25 (≈ 0.741 µM) | –
CC(=O)NC[C@H]1CN(c2ccc(N3CCN(C(=O)/C=C/C(=O)[O-])CC3)c(F)c2)C(=O)O1.[Na+] | – | – | – | > 16 | – | > 16 | – | > 16 | > 16 | – | – | – | –
CC(=O)NC[C@H]1CN(c2ccc(N3CCN(C(=O)/C=C/c4ccccc4)CC3)c(F)c2)C(=O)O1 | > 16 | 0.5 (≈ 1.07 µM) | 0.5 (≈ 1.07 µM) | 1 (≈ 2.14 µM) | 2 (≈ 4.29 µM) | 0.5 (≈ 1.07 µM) | 2 (≈ 4.29 µM) | 1 (≈ 2.14 µM) | 1 (≈ 2.14 µM) | 1 (≈ 2.14 µM) | 0.5 µg/mL (≈ 1.07 µM) | 1 (≈ 2.14 µM) | 2 (≈ 4.29 µM)
CC(=O)NC[C@H]1CN(c2ccc(N3CCN(C(=O)CO)CC3)c(F)c2)C(=O)O1 [EPEREZOLID] | > 16 | 1 (≈ 2.54 µM) | 1 (≈ 2.54 µM) | – | 2 (≈ 5.07 µM) | 1 (≈ 2.54 µM) | 2 (≈ 5.07 µM) | 2 (≈ 5.07 µM) | 2 (≈ 5.07 µM) | 1 (≈ 2.54 µM) | 0.5 µg/mL (≈ 1.27 µM) | 0.5 (≈ 1.27 µM) | 2 (≈ 5.07 µM)
